# Measured values from patent US7745437B2, “Compounds and compositions as protein kinase inhibitors” (IRM LLC, priority 2004, dated 2010).
# Experiments:
# Assay in all cases: Upstate KinaseProfiler radio-enzymatic filter binding assay
# Format in all cases: biochemical
# [1] = biological target: T1, JNK2α2 (Homo sapiens, UniProt P45984); details: at a concentration of 10 μM; read-out: percentage inhibition of JNK2α2
# T1 construct: purchased Upstate
# Description: (§1) Compounds of the invention are assessed for their ability to inhibit individual members of the kinase panel. The compounds are tested in duplicates at a final concentration of 10 μM following this generic protocol. Note that the kinase buffer composition and the substrates vary for the different kinases included in the “Upstate KinaseProfiler™” panel. Kinase buffer (2.5 μL, 10×—containing MnCl2 when required), active kinase (0.001-0.01 Units; 2.5 μL), specific or Poly(Glu4-Tyr) peptide (5-500 μM or 0.01 mg/ml) in kinase buffer and kinase buffer (50 μM; 5 μL) are mixed in an eppendorf on ice, A Mg/ATP mix (10 μL; 67.5 (or 33.75) mM MgCl2, 450 (or 225) μM ATP and 1 μCi/μl [γ-^32P]-ATP (3000 Ci/mmol)) is added and the reaction is incubated at about 30° C. for about 10 minutes. The reaction mixture is spotted (20 μL) onto a 2 cm×2 cm P81 (phosphocellulose, for positively charged peptide substrates) or Whatman No. 1 (for Poly (Glu4-Tyr) peptide substrate) paper square. The assay squares are washed 4 times, for 5 minutes each, with 0.75% phosphoric acid and washed once with acetone for 5 minutes. The assay squares are transferred to a scintillation vial, 5 ml scintillation cocktail are added and ^32P incorporation (cpm) to the peptide substrate is quantified with a Beckman scintillation counter. Percentage inhibition is calculated for each reaction.
# [2] = biological target: T2, wild-type Abl (Homo sapiens, UniProt P00519); details: at a concentration of 10 μM; read-out: percentage inhibition of wild-type Abl
# T2 construct: purchased Upstate
# T2 sequence (P00519 whole entry, species assumed): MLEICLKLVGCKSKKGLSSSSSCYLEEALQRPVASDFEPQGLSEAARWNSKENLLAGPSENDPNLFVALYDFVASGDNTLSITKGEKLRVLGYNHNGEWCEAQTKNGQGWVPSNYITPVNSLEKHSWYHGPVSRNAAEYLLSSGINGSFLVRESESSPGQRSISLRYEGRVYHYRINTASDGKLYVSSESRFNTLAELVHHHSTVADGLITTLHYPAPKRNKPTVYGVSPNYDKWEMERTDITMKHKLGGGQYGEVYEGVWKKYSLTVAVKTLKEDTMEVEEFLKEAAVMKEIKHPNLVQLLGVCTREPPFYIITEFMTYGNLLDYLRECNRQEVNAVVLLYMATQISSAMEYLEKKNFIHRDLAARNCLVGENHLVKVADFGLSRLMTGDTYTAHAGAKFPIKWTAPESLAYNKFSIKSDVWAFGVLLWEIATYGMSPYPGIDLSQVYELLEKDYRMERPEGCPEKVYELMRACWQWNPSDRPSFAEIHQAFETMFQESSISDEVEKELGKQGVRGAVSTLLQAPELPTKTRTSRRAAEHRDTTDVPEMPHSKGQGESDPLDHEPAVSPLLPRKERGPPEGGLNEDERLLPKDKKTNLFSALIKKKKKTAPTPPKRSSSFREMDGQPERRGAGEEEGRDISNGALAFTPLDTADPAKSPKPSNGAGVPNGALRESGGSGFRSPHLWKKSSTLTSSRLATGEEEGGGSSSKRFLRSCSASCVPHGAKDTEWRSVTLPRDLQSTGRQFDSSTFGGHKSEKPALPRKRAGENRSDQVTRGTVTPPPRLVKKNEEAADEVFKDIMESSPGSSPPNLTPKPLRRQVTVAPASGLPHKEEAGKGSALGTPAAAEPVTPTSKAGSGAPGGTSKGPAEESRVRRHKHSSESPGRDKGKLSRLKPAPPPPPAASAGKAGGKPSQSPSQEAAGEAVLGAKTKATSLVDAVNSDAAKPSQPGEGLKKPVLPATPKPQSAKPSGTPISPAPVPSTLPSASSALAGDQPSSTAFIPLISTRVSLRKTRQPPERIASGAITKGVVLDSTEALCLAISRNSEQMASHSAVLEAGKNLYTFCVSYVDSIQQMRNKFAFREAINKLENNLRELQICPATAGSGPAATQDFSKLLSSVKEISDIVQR
# Description: as §1
# [3] = biological target: T3, MKK6 (Homo sapiens, UniProt P52564); details: at a concentration of 10 μM; read-out: percentage inhibition of MKK6
# T3 construct: purchased Upstate
# T3 sequence (P52564 1-334): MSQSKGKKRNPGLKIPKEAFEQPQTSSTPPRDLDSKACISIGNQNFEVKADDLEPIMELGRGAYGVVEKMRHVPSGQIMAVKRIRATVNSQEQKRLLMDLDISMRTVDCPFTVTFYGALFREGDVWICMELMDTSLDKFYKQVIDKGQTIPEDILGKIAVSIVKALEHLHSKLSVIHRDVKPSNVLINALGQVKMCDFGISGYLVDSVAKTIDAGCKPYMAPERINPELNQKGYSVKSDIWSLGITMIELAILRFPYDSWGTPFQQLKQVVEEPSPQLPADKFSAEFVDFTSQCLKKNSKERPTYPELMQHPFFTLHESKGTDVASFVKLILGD
# Description: as §1
# [4] = biological target: T4, PDGFRα (Homo sapiens, UniProt P16234); details: at a concentration of 10 μM; read-out: percentage inhibition of PDGFRα
# T4 construct: purchased Upstate
# Description: as §1
# [5] = biological target: T5, SAPK2α (Homo sapiens, UniProt Q16539); details: at a concentration of 10 μM; read-out: percentage inhibition of SAPK2α
# T5 construct: purchased Upstate
# T5 sequence (Q16539 whole entry): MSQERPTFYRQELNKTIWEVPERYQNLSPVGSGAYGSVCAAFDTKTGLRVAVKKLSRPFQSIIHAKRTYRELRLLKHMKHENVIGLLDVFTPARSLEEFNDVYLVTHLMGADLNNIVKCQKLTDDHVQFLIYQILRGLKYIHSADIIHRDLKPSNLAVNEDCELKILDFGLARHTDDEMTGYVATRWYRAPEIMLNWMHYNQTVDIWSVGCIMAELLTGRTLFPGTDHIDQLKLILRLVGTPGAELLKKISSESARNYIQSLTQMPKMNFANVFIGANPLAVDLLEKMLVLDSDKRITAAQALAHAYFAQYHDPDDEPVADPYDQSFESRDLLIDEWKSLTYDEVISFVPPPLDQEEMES
# Description: as §1
# [6] = biological target: T6, TrkB (Homo sapiens, UniProt Q16620); details: at a concentration of 10 μM; read-out: percentage inhibition of TrkB
# T6 construct: purchased Upstate
# T6 sequence (Q16620 32-822): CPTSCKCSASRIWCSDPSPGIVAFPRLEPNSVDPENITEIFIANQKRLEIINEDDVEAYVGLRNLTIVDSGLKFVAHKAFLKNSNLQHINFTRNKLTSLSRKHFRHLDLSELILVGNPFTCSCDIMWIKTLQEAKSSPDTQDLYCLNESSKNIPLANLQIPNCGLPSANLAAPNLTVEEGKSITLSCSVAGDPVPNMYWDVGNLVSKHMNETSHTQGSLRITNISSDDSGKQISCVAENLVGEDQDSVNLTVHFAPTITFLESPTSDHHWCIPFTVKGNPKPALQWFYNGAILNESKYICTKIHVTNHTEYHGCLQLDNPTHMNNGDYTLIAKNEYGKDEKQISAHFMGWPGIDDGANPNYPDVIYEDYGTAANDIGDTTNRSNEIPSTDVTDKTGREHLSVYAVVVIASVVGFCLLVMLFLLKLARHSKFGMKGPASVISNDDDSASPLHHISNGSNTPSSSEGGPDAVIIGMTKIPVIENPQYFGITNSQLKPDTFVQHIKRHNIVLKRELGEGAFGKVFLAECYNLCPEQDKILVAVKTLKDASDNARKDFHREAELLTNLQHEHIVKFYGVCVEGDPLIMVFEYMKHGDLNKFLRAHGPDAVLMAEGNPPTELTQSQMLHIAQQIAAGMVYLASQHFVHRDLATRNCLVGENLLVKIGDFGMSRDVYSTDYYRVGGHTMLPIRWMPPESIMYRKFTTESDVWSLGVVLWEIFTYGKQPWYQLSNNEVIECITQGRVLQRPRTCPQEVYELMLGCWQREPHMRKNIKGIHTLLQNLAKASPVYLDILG
# Description: as §1
# [7] = biological target: T7, lck (Homo sapiens, UniProt P06239); details: at a concentration of 10 μM; read-out: percentage inhibition of lck
# T7 construct: purchased Upstate
# Description: as §1
# [8] = biological target: T8, Tie2 (Homo sapiens, UniProt Q02763); details: at a concentration of 10 μM; read-out: percentage inhibition of Tie2
# T8 construct: purchased Upstate
# T8 sequence (Q02763 23-1124): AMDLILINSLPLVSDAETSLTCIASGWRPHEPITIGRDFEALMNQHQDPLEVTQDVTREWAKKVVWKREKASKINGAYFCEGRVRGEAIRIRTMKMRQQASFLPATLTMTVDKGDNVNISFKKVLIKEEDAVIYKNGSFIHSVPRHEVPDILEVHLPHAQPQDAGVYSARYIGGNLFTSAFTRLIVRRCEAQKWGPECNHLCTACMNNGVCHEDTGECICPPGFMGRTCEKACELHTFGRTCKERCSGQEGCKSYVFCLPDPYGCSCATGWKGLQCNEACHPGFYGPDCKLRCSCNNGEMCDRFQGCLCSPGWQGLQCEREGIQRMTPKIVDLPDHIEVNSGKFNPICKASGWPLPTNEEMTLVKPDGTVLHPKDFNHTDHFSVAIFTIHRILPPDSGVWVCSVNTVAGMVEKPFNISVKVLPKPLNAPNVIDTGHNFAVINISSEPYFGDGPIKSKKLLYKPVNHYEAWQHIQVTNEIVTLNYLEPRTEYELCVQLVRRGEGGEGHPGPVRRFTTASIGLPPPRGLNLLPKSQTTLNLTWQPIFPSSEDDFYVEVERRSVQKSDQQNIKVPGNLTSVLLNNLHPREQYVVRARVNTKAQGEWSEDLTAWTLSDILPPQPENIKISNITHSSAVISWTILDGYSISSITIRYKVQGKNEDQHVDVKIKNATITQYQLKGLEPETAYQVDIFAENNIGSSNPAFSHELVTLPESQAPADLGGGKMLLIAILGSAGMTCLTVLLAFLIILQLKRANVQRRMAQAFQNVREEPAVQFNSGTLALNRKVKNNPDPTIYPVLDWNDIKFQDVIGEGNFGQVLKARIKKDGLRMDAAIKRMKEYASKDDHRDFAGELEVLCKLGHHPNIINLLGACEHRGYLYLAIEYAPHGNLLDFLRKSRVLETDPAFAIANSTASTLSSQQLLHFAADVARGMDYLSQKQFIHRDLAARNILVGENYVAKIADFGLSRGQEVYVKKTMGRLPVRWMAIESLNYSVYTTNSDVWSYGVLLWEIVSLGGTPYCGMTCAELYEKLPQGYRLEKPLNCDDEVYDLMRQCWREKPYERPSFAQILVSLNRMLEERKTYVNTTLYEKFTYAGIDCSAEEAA
# Description: as §1
# [9] = biological target: T9, c-SRC (Homo sapiens, UniProt P12931); details: at a concentration of 10 μM; read-out: percentage inhibition of c-SRC
# T9 construct: purchased Upstate
# Description: as §1
# [10] = biological target: T10, SAPK2β (Homo sapiens, UniProt Q15759); details: at a concentration of 10 μM; read-out: percentage inhibition of SAPK2β
# T10 construct: purchased Upstate
# T10 sequence (Q15759 whole entry): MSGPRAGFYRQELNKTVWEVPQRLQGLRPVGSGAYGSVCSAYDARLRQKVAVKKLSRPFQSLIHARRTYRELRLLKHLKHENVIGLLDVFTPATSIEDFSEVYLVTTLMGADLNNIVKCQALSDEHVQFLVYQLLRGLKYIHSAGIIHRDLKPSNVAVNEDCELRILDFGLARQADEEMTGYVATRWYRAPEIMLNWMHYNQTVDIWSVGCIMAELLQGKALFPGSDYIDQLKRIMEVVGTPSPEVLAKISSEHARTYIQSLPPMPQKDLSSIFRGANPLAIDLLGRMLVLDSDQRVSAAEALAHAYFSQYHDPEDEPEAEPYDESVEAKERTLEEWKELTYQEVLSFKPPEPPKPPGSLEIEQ
# Description: as §1
# [11] = biological target: T11, c-RAF (Homo sapiens, UniProt P04049); details: at a concentration of 10 μM; read-out: percentage inhibition of c-RAF
# T11 construct: purchased Upstate
# T11 sequence (P04049 whole entry): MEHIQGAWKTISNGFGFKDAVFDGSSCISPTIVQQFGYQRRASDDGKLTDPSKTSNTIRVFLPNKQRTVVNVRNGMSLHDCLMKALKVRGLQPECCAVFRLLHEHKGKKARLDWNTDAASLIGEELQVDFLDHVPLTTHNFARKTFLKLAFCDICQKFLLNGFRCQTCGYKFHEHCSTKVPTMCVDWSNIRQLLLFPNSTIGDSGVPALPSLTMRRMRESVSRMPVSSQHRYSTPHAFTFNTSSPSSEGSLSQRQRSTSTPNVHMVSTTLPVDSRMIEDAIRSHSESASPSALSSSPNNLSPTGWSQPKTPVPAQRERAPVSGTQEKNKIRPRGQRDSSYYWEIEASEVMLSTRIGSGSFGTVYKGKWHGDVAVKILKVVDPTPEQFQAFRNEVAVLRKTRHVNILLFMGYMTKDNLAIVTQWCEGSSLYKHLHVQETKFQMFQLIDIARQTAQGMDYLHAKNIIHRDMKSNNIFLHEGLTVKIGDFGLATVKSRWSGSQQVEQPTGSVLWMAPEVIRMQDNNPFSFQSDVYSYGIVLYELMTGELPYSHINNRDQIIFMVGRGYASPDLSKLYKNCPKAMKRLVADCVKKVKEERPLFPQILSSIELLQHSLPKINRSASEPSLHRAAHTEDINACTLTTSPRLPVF
# Description: as §1
# T1 sequence (P45984 whole entry): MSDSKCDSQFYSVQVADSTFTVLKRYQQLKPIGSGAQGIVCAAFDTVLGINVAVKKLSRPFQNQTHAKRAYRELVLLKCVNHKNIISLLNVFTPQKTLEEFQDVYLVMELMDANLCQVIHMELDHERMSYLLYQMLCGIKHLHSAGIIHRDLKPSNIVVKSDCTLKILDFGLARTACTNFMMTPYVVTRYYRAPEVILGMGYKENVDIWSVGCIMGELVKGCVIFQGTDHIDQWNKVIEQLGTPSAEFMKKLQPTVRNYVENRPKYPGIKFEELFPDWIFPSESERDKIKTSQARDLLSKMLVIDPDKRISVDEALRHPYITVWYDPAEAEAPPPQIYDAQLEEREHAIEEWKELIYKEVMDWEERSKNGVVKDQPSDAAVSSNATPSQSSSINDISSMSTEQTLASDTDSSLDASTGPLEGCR
smiles,measurement,setting,value
"Cc1ccc(NC(=O)c2cccc(C(F)(F)F)c2)cc1Nc1nccn1-c1cc(NCCN2CCOCC2)ncn1 [Compound 3, N-(4-Methyl-3-{1-[6-(2-morpholin-4-yl-ethylamino)-pyrimidin-4-yl]-1H-imidazol-2-ylamino}-phenyl)-3-trifluoromethyl-benzamide]",inhibition at 10 µM,[1],97%
same,inhibition at 10 µM,[2],97%
same,inhibition at 10 µM,[3],100%
same,inhibition at 10 µM,[4],97%
same,inhibition at 10 µM,[5],100%
same,inhibition at 10 µM,[6],97%
same,inhibition at 10 µM,[7],100%
same,inhibition at 10 µM,[8],99%
same,inhibition at 10 µM,[9],99%
same,inhibition at 10 µM,[10],100%
same,inhibition at 10 µM,[11],100%
